Reference: patent US11208475B1, “Methods and compositions for treating inflammatory or autoimmune diseases or conditions using serotonin receptor activators” (Flagship Pioneering Innovations V, Inc., priority 2018, dated 2021)

System: macrophages
Test: IL-8 secretion by macrophages incubated with serotonin receptor agonists (bead-based immunoassay)
Assay type: cell-based
Details: human CD14+ monocyte-derived macrophages (M-CSF), supernatant
Experimental: CD14+ monocytes were isolated from human PBMCs using negative magnetic bead selection (Stemcell Technologies) on day 0. Cells were cultured with M-CSF to differentiate monocytes to macrophages. On day 6, cells were treated with LP44 (high affinity 5-HT7 agonist), BW 723C86 hydrochloride (5-HT2B agonist), MK 212 hydrochloride (5-HT2C agonist) (Sigma-Aldrich), at concentrations 1 μM and 10 μM overnight. Supernatant was collected and bead-based immunoassays (Biolegend) were performed to detect changes in cytokine secretion.
Across multiple human donors, secretion of the inflammatory cytokine, IL8, by macrophages was decreased after addition of each of the HTR2B, HTR2C, and HTR7 agonists, as show in Table 17 below.

| Structure (SMILES) | Fold change of IL-8 (Normalized to Macs + LPS with no compound treatment) (compound 1 μM overnight) | Fold change of IL-8 (Normalized to Macs + LPS with no compound treatment) (compound 10 μM overnight) |
| --- | --- | --- |
| CC(N)Cc1c[nH]c2ccc(OCc3cccs3)cc12.Cl (stereo not drawn) [BW723086] | 0.693 | 0.527 |
| CSc1ccccc1N1CCN(CCCCCC(=O)NC2CCCc3ccccc32)CC1 (stereo not drawn) [LP44] | 0.340 | 0.427 |
| Clc1cncc(N2CCNCC2)n1 [MK212] | 0.502 | 0.484 |
